From PubChem BioAssay (NCI)
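Assay format: 96-well plates, 48-hour exposure. Here, GI50 denotes the concentration required for 50% inhibition of growth. TGI: concentration producing complete growth inhibition.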

What was measured:
Assay in all cases: NCI-60 cell line screen, 48 h
HT29 colon = system: HT29 colon
BT-549 breast = system: BT-549 breast
MOLT-4 leukemia = system: MOLT-4 leukemia
HCT-15 colon = system: HCT-15 colon
DU-145 prostate = system: DU-145 prostate
HS 578T breast = system: HS 578T breast
SK-OV-3 ovarian = system: SK-OV-3 ovarian
ACHN renal = system: ACHN renal
OVCAR-8 ovarian = system: OVCAR-8 ovarian
COLO 205 colon = system: COLO 205 colon
SN12C renal = system: SN12C renal
OVCAR-4 ovarian = system: OVCAR-4 ovarian
IGROV1 ovarian = system: IGROV1 ovarian
KM12 colon = system: KM12 colon
HOP-92 NSCLC = system: HOP-92 NSCLC
UACC-257 melanoma = system: UACC-257 melanoma
TK-10 renal = system: TK-10 renal
PC-3 prostate = system: PC-3 prostate
SW-620 colon = system: SW-620 colon
SNB-19 CNS = system: SNB-19 CNS
M14 melanoma = system: M14 melanoma
SK-MEL-5 melanoma = system: SK-MEL-5 melanoma
SR leukemia = system: SR leukemia
CCRF-CEM leukemia = system: CCRF-CEM leukemia
MCF7 breast = system: MCF7 breast
786-0 renal = system: 786-0 renal
HL-60(TB) leukemia = system: HL-60(TB) leukemia
SK-MEL-2 melanoma = system: SK-MEL-2 melanoma
A549 NSCLC = system: A549 NSCLC
NCI-H460 lung = system: NCI-H460 lung
SF-539 CNS = system: SF-539 CNS
NCI/ADR-RES ovarian = system: NCI/ADR-RES ovarian
UACC-62 melanoma = system: UACC-62 melanoma
HCC-2998 colon = system: HCC-2998 colon
LOX IMVI melanoma = system: LOX IMVI melanoma
NCI-H226 lung = system: NCI-H226 lung
MDA-MB-231 breast = system: MDA-MB-231 breast
SNB-75 CNS = system: SNB-75 CNS
NCI-H522 lung = system: NCI-H522 lung
T-47D breast = system: T-47D breast
UO-31 renal = system: UO-31 renal
K-562 leukemia = system: K-562 leukemia
SK-MEL-28 melanoma = system: SK-MEL-28 melanoma
OVCAR-3 ovarian = system: OVCAR-3 ovarian
RPMI-8226 leukemia = system: RPMI-8226 leukemia
NCI-H23 lung = system: NCI-H23 lung
SF-295 CNS = system: SF-295 CNS
EKVX NSCLC = system: EKVX NSCLC
CAKI-1 renal = system: CAKI-1 renal
MDA-MB-468 breast = system: MDA-MB-468 breast
OVCAR-5 ovarian = system: OVCAR-5 ovarian
HOP-62 NSCLC = system: HOP-62 NSCLC
MALME-3M melanoma = system: MALME-3M melanoma
MDA-MB-435 = system: MDA-MB-435
SF-268 CNS = system: SF-268 CNS
HCT-116 colon = system: HCT-116 colon
U251 CNS = system: U251 CNS
A498 renal = system: A498 renal

`CC12OOC(C)(OO1)C2CCC(=O)OCCNc1ccnc2cc(Cl)ccc12` (stereo unspecified) gave a GI50 (HT29 colon) of 3.46 µM, a TGI (HT29 colon) of 8.62 µM and a GI50 (BT-549 breast) of over 18.3 µM. The TGI (BT-549 breast) was over 18.3 µM, the GI50 (MOLT-4 leukemia) was 16.8 µM and the TGI (MOLT-4 leukemia) was over 18.3 µM. For the same compound, the GI50 (HCT-15 colon) was 2.87 µM, the TGI (HCT-15 colon) was 5.47 µM and the GI50 (DU-145 prostate) was 3.47 µM. For the same compound, the TGI (DU-145 prostate) was 6.32 µM, the GI50 (HS 578T breast) was over 18.3 µM and the TGI (HS 578T breast) was over 18.3 µM. For the same compound, the GI50 (SK-OV-3 ovarian) was over 18.3 µM, the TGI (SK-OV-3 ovarian) was over 18.3 µM and the GI50 (ACHN renal) was 1.59 µM. For the same compound, the TGI (ACHN renal) was 3.81 µM, the GI50 (OVCAR-8 ovarian) was 16.8 µM and the TGI (OVCAR-8 ovarian) was over 18.3 µM. The GI50 (COLO 205 colon) was 3.57 µM, the TGI (COLO 205 colon) was 10.8 µM and the GI50 (SN12C renal) was over 18.3 µM. For the same compound, the TGI (SN12C renal) was over 18.3 µM, the GI50 (OVCAR-4 ovarian) was 3.5 µM and the TGI (OVCAR-4 ovarian) was 7.42 µM. For the same compound, the GI50 (IGROV1 ovarian) was 6.59 µM, the TGI (IGROV1 ovarian) was over 18.3 µM and the GI50 (KM12 colon) was over 18.3 µM. It also gave a TGI (KM12 colon) of over 18.3 µM, a GI50 (HOP-92 NSCLC) of 2.72 µM and a TGI (HOP-92 NSCLC) of 7.92 µM. For the same compound, the GI50 (UACC-257 melanoma) was over 18.3 µM, the TGI (UACC-257 melanoma) was over 18.3 µM and the GI50 (TK-10 renal) was 2.69 µM. The TGI (TK-10 renal) was 6.03 µM, the GI50 (PC-3 prostate) was over 18.3 µM and the TGI (PC-3 prostate) was over 18.3 µM. The GI50 (SW-620 colon) was 5.83 µM, the TGI (SW-620 colon) was over 18.3 µM and the GI50 (SNB-19 CNS) was over 18.3 µM. For the same compound, the TGI (SNB-19 CNS) was over 18.3 µM, the GI50 (M14 melanoma) was 10.8 µM and the TGI (M14 melanoma) was over 18.3 µM. For the same compound, the GI50 (SK-MEL-5 melanoma) was over 18.3 µM, the TGI (SK-MEL-5 melanoma) was over 18.3 µM and the GI50 (SR leukemia) was 3.35 µM. For the same compound, the TGI (SR leukemia) was 8.03 µM, the GI50 (CCRF-CEM leukemia) was 5.36 µM and the TGI (CCRF-CEM leukemia) was 17.5 µM. It also gave a GI50 (MCF7 breast) of 7.76 µM, a TGI (MCF7 breast) of over 18.3 µM and a GI50 (786-0 renal) of 4.95 µM. It also gave a TGI (786-0 renal) of 16.5 µM, a GI50 (HL-60(TB) leukemia) of over 18.3 µM and a TGI (HL-60(TB) leukemia) of over 18.3 µM. It also gave a GI50 (SK-MEL-2 melanoma) of over 18.3 µM, a TGI (SK-MEL-2 melanoma) of over 18.3 µM and a GI50 (A549 NSCLC) of 4.17 µM. For the same compound, the TGI (A549 NSCLC) was 12.2 µM, the GI50 (NCI-H460 lung) was 6.3 µM and the TGI (NCI-H460 lung) was over 18.3 µM. For the same compound, the GI50 (SF-539 CNS) was over 18.3 µM, the TGI (SF-539 CNS) was over 18.3 µM and the GI50 (NCI/ADR-RES ovarian) was over 18.3 µM. For the same compound, the TGI (NCI/ADR-RES ovarian) was over 18.3 µM, the GI50 (UACC-62 melanoma) was over 18.3 µM and the TGI (UACC-62 melanoma) was over 18.3 µM. The GI50 (HCC-2998 colon) was over 18.3 µM, the TGI (HCC-2998 colon) was over 18.3 µM and the GI50 (LOX IMVI melanoma) was 2.87 µM. The TGI (LOX IMVI melanoma) was 5.39 µM, the GI50 (NCI-H226 lung) was 4.19 µM and the TGI (NCI-H226 lung) was 14.2 µM. It also gave a GI50 (MDA-MB-231 breast) of over 18.3 µM, a TGI (MDA-MB-231 breast) of over 18.3 µM and a GI50 (SNB-75 CNS) of over 18.3 µM. It also gave a TGI (SNB-75 CNS) of over 18.3 µM, a GI50 (NCI-H522 lung) of 3.23 µM and a TGI (NCI-H522 lung) of 6.53 µM. For the same compound, the GI50 (T-47D breast) was over 18.3 µM, the TGI (T-47D breast) was over 18.3 µM and the GI50 (UO-31 renal) was 2.57 µM. The TGI (UO-31 renal) was 4.94 µM, the GI50 (K-562 leukemia) was 4.11 µM and the TGI (K-562 leukemia) was 11.8 µM. For the same compound, the GI50 (SK-MEL-28 melanoma) was over 18.3 µM, the TGI (SK-MEL-28 melanoma) was over 18.3 µM and the GI50 (OVCAR-3 ovarian) was 3.71 µM. It also gave a TGI (OVCAR-3 ovarian) of 7.21 µM, a GI50 (RPMI-8226 leukemia) of 8.81 µM and a TGI (RPMI-8226 leukemia) of over 18.3 µM. For the same compound, the GI50 (NCI-H23 lung) was over 18.3 µM, the TGI (NCI-H23 lung) was over 18.3 µM and the GI50 (SF-295 CNS) was over 18.3 µM. It also gave a TGI (SF-295 CNS) of over 18.3 µM, a GI50 (EKVX NSCLC) of over 18.3 µM and a TGI (EKVX NSCLC) of over 18.3 µM. It also gave a GI50 (CAKI-1 renal) of 3.21 µM, a TGI (CAKI-1 renal) of 5.96 µM and a GI50 (MDA-MB-468 breast) of 2.87 µM. The TGI (MDA-MB-468 breast) was 7.73 µM, the GI50 (OVCAR-5 ovarian) was over 18.3 µM and the TGI (OVCAR-5 ovarian) was over 18.3 µM. For the same compound, the GI50 (HOP-62 NSCLC) was over 18.3 µM, the TGI (HOP-62 NSCLC) was over 18.3 µM and the GI50 (MALME-3M melanoma) was 3.1 µM. It also gave a TGI (MALME-3M melanoma) of 5.98 µM, a GI50 (MDA-MB-435) of 18.3 µM and a TGI (MDA-MB-435) of over 18.3 µM. It also gave a GI50 (SF-268 CNS) of over 18.3 µM, a TGI (SF-268 CNS) of over 18.3 µM and a GI50 (HCT-116 colon) of 3.59 µM. It also gave a TGI (HCT-116 colon) of 8.67 µM, a GI50 (U251 CNS) of over 18.3 µM and a TGI (U251 CNS) of over 18.3 µM. For the same compound, the GI50 (A498 renal) was over 18.3 µM and the TGI (A498 renal) was over 18.3 µM.
